Measurements: patent US4091102A, “Anti-depressant trans-hexahydropyrido[3,4-b]indoles” (Endo Laboratories, Inc., priority 1976, dated 1978)
Like-named read-outs stand apart in the source and are kept apart here.

Tested on: tetrabenazine-induced sedation and depression in mice
Assay: Antagonism of tetrabenazine-induced depression in mice orally at 1 hour post-drug
Format: in vivo, Carworth CF1 S female mice
Conditions: Mus musculus, oral, 1 hour post-drug (30 minutes after tetrabenazine 32 mg/kg intraperitoneally)
Description: A standard procedure for detecting and comparing the antidepressant activity of compounds in this series for which there is good correlation with human efficacy is the prevention of tetrabenazine-induced sedation and depression in mice. (Everett, "The Dopa Response Potentiation Test and Its Use in Screening for Antidepressant Drugs", pp. 164-167 in "Antidepressant Drugs" [Proceedings of the First International Symposium], S. Garattini and M. N. G. Dukes, eds., 1967.). Groups of 10 Carworth CF1 S female mice, 18-21 g. each, were fasted 1.5 hours and were intubated with antagonist compounds at oral doses of 0, 5, 25, and 125 mg/kg or 0, 1, 3, 9, 27, and 81 mg/kg in 0.20 ml. of 1% Methocel (methylcellulose). The mice were challenged 30 minutes later with tetrabenazine (as the methane-sulfonate), 32 mg/kg intraperitoneally (dissolved in 0.20 ml. 0.05M KCl at pH 2.0). One hour after antagonist (30 minutes after tetrabenazine), the mice were examined for signs of exploratory activity and ptosis (eyelid closure). Normal exploratory activity (relief from sedation) was recorded when a mouse lifted by the tail from a group of 10 in a testing box and placed on a stainless steel testing box lid (12.5 × 8 inches with 0.33 inch mesh) either turned its head horizontally 30° in both directions or moved to the edge of the screen within 10 seconds after being placed on the screen. Relief from ptosis was recorded when exactly 2 seconds after placing the mouse facing the observer, lid closure was less than 50% in both eyes. The following table gives results. |ANTAGONISM OF TETRABENAZINE-INDUCED |DEPRESSION IN MICE ORALLY AT 1 HOUR |POST-DRUG

[1] = lid closure less than 50% in both eyes, read-out: ED50 for prevention of ptosis
[2] = relief from sedation (exploratory activity), read-out: ED50 for prevention of exploratory loss

`CC1NCCC2c3ccccc3N(c3ccccc3)C12` (stereo not drawn) [Ig] gave an ED50 [1] of 25 mg/kg and an ED50 [2] of 31 mg/kg.
Work on `CCC1C2C(CCN1CC)c1ccccc1N2c1ccccc1` (stereo not drawn) [If] yielded an ED50 [1] of 27 mg/kg and an ED50 [2] of 38 mg/kg.
Compound `CC(C)N1CCC2c3ccccc3N(c3ccccc3)C2C1C` (stereo not drawn) [Id] has an ED50 [1] of 11.2 mg/kg and an ED50 [2] of 19 mg/kg.
`CN(C)CCC=C1c2ccccc2CCc2ccccc21` [Amitriptyline, amitriptyline, reference compound] showed an ED50 [1] of 1.7 mg/kg and an ED50 [2] of 4.7 mg/kg.
`CCN1CCC2c3ccccc3N(c3ccccc3)C2C1C` (stereo not drawn) [Ia] showed an ED50 [1] of 3 mg/kg and an ED50 [2] of 4.2 mg/kg.
In the case of `CC1C2C(CCN1C)c1ccccc1N2c1ccccc1` (stereo not drawn) [Ib], the ED50 [1] is reported as 16 mg/kg and the ED50 [2] is reported as 38 mg/kg.
With `CCN1CC2C(CC1C)c1ccccc1N2c1ccccc1` (stereo not drawn) [Ij] the ED50 [1] was less than 5 mg/kg and the ED50 [2] was less than 5 mg/kg.
With `CCCN1CCC2c3ccccc3N(c3ccccc3)C2C1C` (stereo not drawn) [Ic] the ED50 [1] was 14 mg/kg and the ED50 [2] was 38 mg/kg.
With `CCC1C2C(CCN1C)c1ccccc1N2c1ccccc1` (stereo not drawn) [Ie] the ED50 [1] was 9.1 mg/kg and the ED50 [2] was 11.2 mg/kg.
